Test results as given in US20240114902A1, “COMPOSITIONS AND METHODS FOR DETERRING OVIPOSITION BY FRUIT FLIES” (The United States of America, as represented by The …, priority 2022, published 2024).

What was measured:
Zeugodacus cucurbitae = experiment: Spatial repellency of fatty acid methyl esters, two-choice traps with pumpkin juice; assay type: in vivo; details: 100 μL doses
Description: The methods used to test the repellency of fatty acid methyl esters for OFF described above were used in this Example, with minor modifications. The only difference was that pumpkin juice was used as attractant in traps. Melon flies used in this study were from melon fly colony at the U.S Pacific Basin Agricultural Research Center in Hilo, Hawaii, which were maintained on a standard larval diet containing wheat, sugar, and yeast (Tanaka at al., Supra). Chemicals tested were C8:0ME (Methyl octanoate), C10:0ME (Methyl decanoate), C12:0ME (Methyl laurate), C14:0ME (Methyl tetradecanoate), C16:0ME (Methyl palmitate), C18:0ME (Methyl stearate), C18:1ME (Methyl Oleate), and C18:2 (Methyl linoleate).

Bactrocera dorsalis = experiment: B. dorsalis spatial deterrence, two-choice traps baited with guava juice; assay type: in vivo; details: tested individually
Method: In addition to CFA, a series of odd-numbered carbon fatty acids (C9:0 to C17:0) and fatty acid methyl esters were evaluated for the spatial deterrence to B. dorsalis that results in oviposition reduction. Table 3 below lists the fatty acid methyl esters tested for spatial repellency for Bactrocera dorsalis. […] FIG. 16A, FIG. 16C, FIG. 16E, FIG. 16G, FIG. 16I, FIG. 16K, FIG. 16M, FIG. 16O, FIG. 16Q, and FIG. 16S show the mean numbers (±SEM) of mated female B. dorsalis flies captured, and FIG. 16B, FIG. 16D, FIG. 16F, FIG. 16H, FIG. 16J, FIG. 16L, FIG. 16N, FIG. 16P, FIG. 16R, and FIG. 16T show the number of B. dorsalis eggs oviposited in traps baited with guava juice (control) and with guava juice plus one of the coconut fatty acid methyl ester compounds in two-choice bioassays. For each test, different letter on the bar indicate a significant difference by Tukey-Kramer tests at P<0.05, n=4.

[1] = test system: melon fly (Zeugodacus cucurbitae); experiment: Additional fatty acids: melon fly two-choice oviposition bioassay on pumpkin juice agar; assay type: in vivo; details: 20 mg, 24 hours
Method: (§1) Oviposition bioassays were conducted using laboratory two-choice cage experiments with pumpkin juice-infused agar (for Melon fly) and guava juice-infused agar (for OFF) as oviposition substrate. The agar plates were prepared by pouring 10 mL of boiled agar mixture [1000 mL distilled water, 500 mL pumpkin or guava juice, 10 g agar, 0.6 g methylparaben, 6.7 mL 95% ethanol, and 3 mL acetic acid] into a small petri dish (60 mm×15 mm). The agar was then covered with a lid to avoid desiccation. The two-choice oviposition bioassay was conducted in screened cages using 20 mated melon fly or OFF females per cage (14-18 day-old; Jang et al.; Supra) over 24 hours. Each cage was provided with a ball of water-saturated cotton and sugar+protein hydrolysate mixture in separate 30 mL deli cups, and two agar plates-one treated with one of the test compounds (C4:0 (Butyric acid), C5:0 (Valeric acid), C6:0 (Caproic acid), C7:0 (Enanthic acid), C9:0 (Pelargonic acid), C11:0 (Undecylic acid), C13:0 (Tridecylic acid), C15:0 (Pentadecylic acid), C17:0 (Margaric acid), or C19:0 (Nonadecylic acid)) diluted in ethanol and the other treated with the ethanol which served as a control. The agar plates were surface-treated either with 200 μL of ethanol (control) or 200 μL of one of tested compounds diluted at 20 mg/200 μL of ethanol, placed into a fume hood for 10 minutes to evaporate solvents prior to be used in bioassays, and positioned upside-down (i.e. treated side down) on the center of the outside top of the screened cage 17 cm apart from each other (i.e. one each of control and treated), allowing female flies to oviposit on pumpkin (for melon fly) or guava juice (for OFF) agar from the bottom through the cage screen. After 24 hours, melon fly and OFF eggs in the agar were gently separated from the agar in water and the number of eggs were individually counted. The experiment was replicated five times per treatment.

oriental fruit fly (OFF) = experiment: Additional fatty acids: OFF two-choice oviposition bioassay on guava juice agar, 24 hours; assay type: in vivo, Bactrocera dorsalis; details: individual compound, 20 mg dose
Method: as §1

[2] = test system: Bactrocera dorsalis (OFF); experiment: OFF two-choice cage oviposition bioassay on guava juice-infused agar; assay type: in vivo; details: individual compound, 20 mg/agar
Method: Evaluation of oviposition deterrence of CFA: OFF oviposition bioassays were conducted using laboratory two-choice cage experiments with guava juice-infused agar as an oviposition substrate. The agar plates were prepared by pouring 30 mL of boiled agar mixture [1000 mL distilled water, 500 mL guava juice (Deans Foods, El Paso, Texas, USA), 10 g agar, 0.6 g methylparaben, 6.7 mL 95% ethanol, and 3 mL acetic acid] into a 30 mL deli plastic cup to gel. The agar was then covered with a lid to avoid desiccation. The two-choice oviposition bioassay was conducted in screened cages using 20 mated OFF females per cage (12-18 day-old; Jang E B et al., 1997, “Attraction of female oriental fruit fly, Bactrocera dorsalis, to volatile semiochemicals from leaves and extracts of a non-host plant, Panax (Polyscias guilfoylei) in laboratory and olfactometer assays,” J. Chem. Ecol. 23:1389-1401) over 3 days. Each cage was provided with a ball of water-saturated cotton, sugar, and protein hydrolysate in separate 30 mL deli cups and two guava juice agar plates-one treated with CFA diluted in hexane and the other treated with the hexane control. The agar plates were surface-treated either with 200 μL of hexane or 200 μL of CFA in one of 4 doses tested (20, 2, 0.2, and 0.02 mg/200 μL of hexane), placed into a fume hood for 10 minutes prior to use in bioassays, and positioned upside-down (i.e., treated side down) on the center of the outside top of the screened cage 17 cm apart from each other (i.e., one each of control and CFA treated), allowing female flies to oviposit on guava juice agar from the bottom through the cage screen. After three days, OFF eggs in the guava agar were gently separated from the agar in water and the number of eggs were individually counted (up to 100 eggs) or estimated volumetrically at 1 mL OFF eggs=20,000 eggs (Stephanie Gayle personal communication). The experiment was replicated six times per treatment. Determination of bioactive oviposition deterrent components from CFA: A series of bioassays was conducted to identify key deterrent components of CFA for OFF using the same two-choice bioassay design described above. […] Ethanol was used as control and for preparing dilutions of C16:0 and C18:0. Hexane was used as control and for dilutions of the other six compounds tested. Based on the outcome of these bioassays, the eight free fatty acid components were assigned to “OFF negative” (i.e., oviposition reduced), “OFF neutral” (i.e., no effect on oviposition), and “OFF positive” (i.e., oviposition increased) compound groups. Using these groupings, four different blends were formulated (indicated in Table 1), composed at the equivalent ratios and concentrations of each component found in CFA (Zhu J J et al., 2018, supra), to determine key bioactive CFA components in terms of oviposition deterrence on OFF. The approach involved testing the bioactivity of the OFF negative-component blend (4c blend) for oviposition deterrence at three different doses (2, 0.2, and 0.02 mg CFA equivalent/agar), first comparing with hexane control, then with CFA at respective equivalent doses. As the 4c blend was not as effective as CFA, a “OFF negative+OFF neutral” component blend (6c blend) was then formulated, and its effect compared with CFA at 2 and 0.2 mg CFA equivalent/agar. Two subtraction blends with one of the two OFF neutral components removed from the 6c blend (5c-i and 5c-ii blends) were formulated and compared with the 6c blend at 2 and 0.2 mg CFA equivalent/agar. The experiment was replicated four to six times per treatment.

CCCCCCCCCCCCCCCC(=O)OC [C16:0 ME, Methyl palmitate]
effect on melon fly behavior (Zeugodacus cucurbitae): did not affect melon fly behavior

CCCCCCCC/C=C\CCCCCCCC(=O)OC [C18:1ME, Methyl Oleate]
fewer Z. cucurbitae captured in traps baited with FAME vs control (Zeugodacus cucurbitae): 91.8%

CCCCCCCCCC(=O)OC [C10:0 ME, Methyl caprate]
effect on female B. dorsalis attraction and oviposition to host fruit odors (Bactrocera dorsalis): significantly reduced | fewer Z. cucurbitae captured in traps baited with FAME vs control (Zeugodacus cucurbitae): 76.0%

CCCCCCCCCCCCCCC(=O)O [C15:0, Pentadecylic acid]
effect on melon fly oviposition vs control [1]: increased melon fly oviposition

CCCCCCCCCCCCCCCCC(=O)O [C17:0, Margaric acid]
effect on melon fly oviposition vs control [1]: increased melon fly oviposition

CCCCCC(=O)O [C6:0, Caproic acid]
effect on melon fly oviposition vs control [1]: increased melon fly oviposition | effect on OFF oviposition (oriental fruit fly (OFF)): did not affect OFF oviposition

CCCCCCCCCCCCCCCCCC(=O)OC [C18:0ME, Methyl stearate]
effect on melon fly behavior (Zeugodacus cucurbitae): did not affect melon fly behavior

CCCC(=O)O [C4:0, Butyric acid]
effect on melon fly oviposition vs control [1]: did not affect melon fly oviposition | effect on OFF oviposition (oriental fruit fly (OFF)): did not affect OFF oviposition

CCCCCCCCC(=O)O [C9:0, Pelargonic acid]
effect on melon fly oviposition vs control [1]: did not affect melon fly oviposition | effect on female B. dorsalis attraction and oviposition to host fruit odors (Bactrocera dorsalis): significantly reduced | effect on OFF oviposition vs control agar [2]: significantly reduced

CCCCCCCCCCCC(=O)OC [C12:0 ME, Methyl laurate]
effect on female B. dorsalis attraction and oviposition to host fruit odors (Bactrocera dorsalis): significantly reduced | fewer Z. cucurbitae captured in traps baited with FAME vs control (Zeugodacus cucurbitae): 55.5%

CCCCC/C=C\C/C=C\CCCCCCCC(=O)OC [C18:2ME, Methyl linoleate]
effect on melon fly behavior (Zeugodacus cucurbitae): did not affect melon fly behavior

CCCCCCCCCCCCC(=O)O [C13:0, Tridecylic acid]
fewer melon fly eggs on treated pumpkin juice agar vs control agar [1]: 75.7% | effect on OFF oviposition vs control agar [2]: significantly reduced

CCCCC(=O)O [C5:0, Valeric acid]
fewer melon fly eggs on treated pumpkin juice agar vs control agar [1]: 72.5% | effect on OFF oviposition (oriental fruit fly (OFF)): did not affect OFF oviposition

CCCCCCCC(=O)OC [C8:0 ME, Methyl caprylate]
effect on female B. dorsalis attraction and oviposition to host fruit odors (Bactrocera dorsalis): significantly reduced | fewer Z. cucurbitae captured in traps baited with FAME vs control (Zeugodacus cucurbitae): 97.1%

CCCCCCC(=O)O [C7:0, Enanthic acid]
effect on melon fly oviposition vs control [1]: increased melon fly oviposition | effect on OFF oviposition (oriental fruit fly (OFF)): did not affect OFF oviposition | effect on female B. dorsalis attraction and oviposition to host fruit odors (Bactrocera dorsalis): significantly reduced

CCCCCCCCCCCCCCCCCCC(=O)O [C19:0, Nonadecylic acid]
effect on melon fly oviposition vs control [1]: did not affect melon fly oviposition

CCCCCCCCCCCCCC(=O)OC [C14:0 ME, Methyl myristate]
effect on melon fly behavior (Zeugodacus cucurbitae): did not affect melon fly behavior
